Assay: rapid insulin sensitivity test (RIST) in human volunteers before and after a standardized test meal
Format: in vivo
Conditions: 50 mU/kg insulin bolus i.v., average from 5 subjects
Protocol: Human volunteers were fasted overnight and submitted to a RIST. A stable glycemic baseline level was established by determining three consecutive stable venous glucose concentrations obtained at 5-minute intervals. […] Arterialized venous glucose concentrations were determined at 2-minute intervals and a variable glucose infusion pump was adjusted to maintain a constant blood glucose level. After completion of the first RIST index, a standardized meal consisting of a wheat-based biscuit containing 50 grams of carbohydrate was consumed within a 10-minute period. Venous glucose measurements were determined at 5-minute intervals until a new stable baseline was obtained whereupon a second RIST was carried out.
In FIG. 6, the difference between the results is plotted and is attributed to HISS action. […] Thus, the test meal provided a sufficient feeding signal to allow HISS release.

Q: For insulin, which “RIST index (glucose disposal in response to the insulin bolus)” value (human subjects after test meal (wheat-based biscuit, 50 grams of carbohydrate)) is on record?
A: 502 mg/kg

Q: What about the “RIST index (glucose disposal in response to the insulin bolus)” value (human subjects fasted overnight) of the same substance?
A: 180 mg/kg
